# Experimental data reported in patent publication US20020197653A1, “System for detecting reporter gene expression” (priority 2001, published 2002).
# Test system: NOS gene under the control of the Gal10 promoter (iNOS)
# Assay: Small-molecule-induced expression of the NOS reporter gene in yeast, detected by bead-bound fluorescein-based NO sensor
# Format: cell-based
# Conditions: yeast culture in 96-well plates, galactose final concentration 100 mM, TENTAGEL sensor beads, fluorescent microscope with CCD camera
# Protocol: The lactone function of the sensor is effectively aminolysed at room temperature over 48 hours. The apparent loading achieved was about 10% (0.03 mmol/g), although it is possible that much lower loading was in fact achieved.
# We have also obtained a yeast strain developed by Mansuy et al (Sari et al. Biochemistry 35(22):7204-7213, June 1996; incorporated herein by reference) in which transcription of the NOS gene is under the control of the Gal10 promoter and is therefore inducible (and is referred to as iNOS). We grew the yeast cells in glucose media (SGI medium containing 7 g/L yeast nitrogen base without amino acids, 1 g/L casamino acids, 20 g/L glucose, and 50 mg/L tryptophan, at 30 ° C.) so that expression of the iNOS gene was repressed. The cells were harvested and washed with medium lacking any sugar (7 g/L yeast nitrogen base without amino acids, 1 g/L casamino acids and 50 mg/L tryptophan), were resuspended in the same sugar-free medium, and were distributed into 96-well plates.
# The TENTAGEL beads containing sensor were washed with CH2Cl2, THF, DMF, i-PrOH, MeOH, EtOH, and deionized water, and were dried. 10 μl of sensor beads in sugar-free medium were added to wells containing 170 μl of yeast culture (20-30 beads per well). […]
smiles,measurement,value
O=C[C@H](O)[C@@H](O)[C@@H](O)[C@H](O)CO [galactose],color change of NO sensor beads exposed to induced cells (iNOS reporter expression),distinct color change (green ->yellow)
